This is an account of results in the NIST ThermoML archive (doi:10.1016/j.tca.2015.04.021).

A short description of this data set: molar enthalpy of vaporization or sublimation. The settings on record: Liquid, TGA.

± gives the expanded uncertainty stated by the source.

Turning to `Cn1cc[n+](CCC(F)(F)C(F)(F)C(F)(F)C(F)(F)C(F)(F)C(F)(F)F)c1.O=S(=O)([N-]S(=O)(=O)C(F)(F)F)C(F)(F)F`, the molar enthalpy (532.3 K) was 126 ± 2.8 kJ/mol.
For `Cn1cc[n+](CCC(F)(F)C(F)(F)F)c1.O=S(=O)([N-]S(=O)(=O)C(F)(F)F)C(F)(F)F`, under “527.7 K”, the molar enthalpy was 114 ± 2.6 kJ/mol.
With `Cn1cc[n+](CCC(F)(F)C(F)(F)C(F)(F)C(F)(F)C(F)(F)C(F)(F)C(F)(F)C(F)(F)F)c1.O=S(=O)([N-]S(=O)(=O)C(F)(F)F)C(F)(F)F`, the molar enthalpy (531.8 K) came to 128 ± 2.8 kJ/mol.
